In paper PMC11090880 (Current Research in Microbial Sciences, 2024) one finds IC50 data, which are given here for one compound.

This test has as its target OROV Endo-Nter (N-terminal endonuclease domain of the OROV RNA polymerase, L protein) (Oropouche virus, UniProt A0A0B5CUJ1). The experiment in a line: FRET cleavage assay of dual-labelled DNA. It counts as biochemical.

With `COc1cc(O)c2c(c1)oc(=O)c1c3cc(O)c(O)cc3oc21` [WDL, 7‑methoxy 5,11,12-trihydroxy-coumestan], inhibition was half-maximal at 0.31 ± 0.008 µM (IC50).
